For orientation: EC50 means the concentration at which the effect is half-maximal.

Drawing on US20070213301A1 (ACHILLION PHARMACEUTICALS, INC., priority 2006, published 2007), this text covers EC50 for 25 molecules.

In the assay the test system is HCV replicon. Description: HCV replicon replication assay (NPTII ELISA). The note with it: Hepatitis C virus, Huh-7, 72 h, inhibition of HCV replicon replication in Huh-7 HCV replicon-containing cells, three days incubation, NPT level by ELISA; read-out: EC50. Format: cell-based, Hepatitis C virus (Huh-7 cells). The method, then: Compounds claimed herein are tested for the ability to inhibit viral replication of the Hepatitis C replicon in cultured cells in which the HCV replicon construct has been incorporated. The HCV replicon system was described by Bartenschlager, et. al (Science, 285, pp. 110-113 (1999)). The replicon system is predictive of in vivo anti-HCV activity; compounds that are active in humans uniformly evidence activity in the replicon assay.
In this assay HCV replicon containing cells are treated with different concentrations of the test compound to ascertain the ability of the test compound to suppress replication of the HCV replicon. As a positive control, HCV replicon-containing cells are treated with different concentrations of interferon alpha, a known inhibitor of HCV replication. The replicon assay system includes Neomycin Phosphotransferase (NPT) as a component of the replicon itself in order to detect the transcription of replicon gene products in the host cell. Cells in which the HCV replicon is actively replicating have high levels of NPT; the level of NPT is proportional to HCV replication. […] The NPT level of each sample is measured using a captured ELISA.
The HCV replicon contains, 5′-3′, the HCV-IRES, the neomycin phosphotransferase (neo) gene, the IRES of encephalomyocarditis virus, which directs translation of HCV sequences NS3 to NS5B, and the 3′-NTR. The sequence of the HCV replicon has been deposited in GenBank (Accession no. AJ242652).
The replicon is transfected into Huh-7 cells using standard methods such as electroporation.
The cells are then seeded onto 96-well plates at a density of 6000-7500 cells/100 microliters/well (6-7.5×10^5 cells/10 ml/plate). The plates are then incubated at 37° C. in a 5% CO2 incubator.
HCV replicon-containing cells are rinsed with once PBS once; 2 mls of trypsin are then added. Cells are incubated at 37° C. in a 5% CO2 incubator for 3-5 minutes. 10 mls of complete medium is added to stop the reaction. Cells are blown gently, put into a 15 ml tube, and spun at 1200 rpm for four minutes. The trypsin/medium solution is removed and 5 mls of medium (500 ml DMEM (high glucose)) from BRL catalog #12430-054; 50 mls 10% FBS, 5% Geneticin G418 (50 mg/ml, BRL catalog #10131-035), 5 ml MEM non-essential amino acids (100× BRL #11140-050) and 5 ml pen-strep (BRL #15140-148) is added. The cells and media are mixed carefully
Cells are plated with screening medium (500 ml DMEM (BRL #21063-029), 50 ml FBS (BRL #10082-147) and 5 ml MEM non-essential amino acid (BRL #11140-050) at 6000-7500 cells/100 μl/well of 96 well plate (6-7.5×10^5 cells/10 ml/plate). Plates are placed into 37° C. 5% CO2 incubator overnight.
The following morning, drugs (test compounds or interferon alpha) are diluted in 96 well U bottom plates with media or DMSO/media, depending on the final concentration chosen for screening. Generally for 6 concentrations of each test compounds ranging from 10 micromolar to 0.03 micromolar are applied. 100 μl of the test compound dilution is placed in wells of the 96 well plate containing the HCV replicon cells. Media without drug is added to some wells as a negative controls. DMSO is known to affect cell growth. Therefore, if drugs diluted in DMSO are used, all wells, including negative control (media only) and positive control (interferon alpha) wells, must contain the same concentration of DMSO, for single dose screening. The plates are incubated at 37° C. in a humidified 5% CO2 environment for three days.
On day four, the NTPII assay is quantitated. The medium is poured from the plates and the plates are washed once in 200 μl of PBS. The PBS is then decanted and the plates tapped in a paper towel to remove any remaining PBS. Cells are fixed in situ with 100 μl/well of pre-cooled (−20° C.) methanol:acetone (1:1) and the plates are placed at −20° C. for 30 minutes.
The fixing solution is poured from the plates and the plates allowed to air-dry completely (approximately one hour). […]
In general terms: In antiviral work, replicon cells carry a viral genome segment that copies itself.
With `CCCCCOc1ccc(N(C(C)=O)c2nc(-c3ccc(F)cc3)cs2)cc1C(F)(F)F` [Compound 1, N-(4-(4-fluorophenyl)thiazol-2-yl)-N-(4-(pentyloxy)-3-(trifluoromethyl)phenyl)acetamide], the EC50 was < 1000 nM.

As to `CCCCCOc1ccc(N(C)c2nc(-c3cccnc3)cs2)cc1C(F)(F)F` [Compound 2, N-methyl-N-(4-(pentyloxy)-3-(trifluoromethyl)phenyl)-4-(pyridin-3-yl)thiazol-2-amine], the concentration giving a half-maximal response (EC50) is < 1000 nM.

Regarding `CCCCCOc1ccc(N(C)c2nc(C(=O)O)cs2)cc1C(F)(F)F` [Compound 3, 2-(methyl(4-(pentyloxy)-3-(trifluoromethyl)phenyl)amino)thiazole-4-carboxylic acid], the EC50 is > 10000 nM.

As for `CCCCCOc1ccc(N(C)c2nc(C(=O)Nc3ccc(Cl)cc3)cs2)cc1C(F)(F)F` [Compound 4, N-(4-chlorophenyl)-2-(methyl(4-(pentyloxy)-3-(trifluoromethyl)phenyl)amino)thiazole-4-carboxamide], the EC50 lay in the range of 1000 to 10000 nM.

`CCCCCOc1ccc(N(C)c2nc(C(=O)Nc3ccc(C#N)cc3)cs2)cc1C(F)(F)F` [Compound 5, N-(4-cyanophenyl)-2-(methyl(4-(pentyloxy)-3-(trifluoromethyl)phenyl)amino)thiazole-4-carboxamide]: the EC50 is > 10000 nM.

Consider `CCCCCOc1ccc(N(C)c2nc(C(=O)Nc3cccnc3)cs2)cc1C(F)(F)F` [Compound 6, 2-(methyl(4-(pentyloxy)-3-(trifluoromethyl)phenyl)amino)-N-(pyridin-3-yl)thiazole-4-carboxamide], for which the EC50 lay within 1000 to 10000 nM.

For the molecule `CCCCCOc1ccc(N(C(C)=O)c2nc(C(=O)Nc3cccnc3)cs2)cc1C(F)(F)F` [Compound 7, 2-(N-(4-(pentyloxy)-3-(trifluoromethyl)phenyl)acetamido)-N-(pyridin-3-yl)thiazole-4-carboxamide], the EC50 lay in the range of 1000 to 10000 nM.

In the case of `CCCCCOc1ccc(N(C)c2nc(-c3ccc(CN4CCOCC4)nc3)cs2)cc1C(F)(F)F` [Compound 8, N-methyl-4-(6-(morpholinomethyl)pyridin-3-yl)-N-(4-(pentyloxy)-3-(trifluoromethyl)phenyl)thiazol-2-amine], the EC50 was 1000 to 10000 nM.

Turning to `CCCCCOc1ccc(N(CC(=O)N(CC)CC)c2nc(-c3cccnc3)cs2)cc1C(F)(F)F` [Compound 9, N,N-diethyl-2-((4-(pentyloxy)-3-(trifluoromethyl)phenyl)(4-(pyridin-3-yl)thiazol-2-yl)amino)acetamide], the EC50 is > 10000 nM.

In the case of `CCCCCOc1ccc(N(C)c2nc(-c3ccc(CN4CCN(C)CC4)nc3)cs2)cc1C(F)(F)F` [Compound 10, N-methyl-4-(6-((4-methylpiperazin-1-yl)methyl)pyridin-3-yl)-N-(4-(pentyloxy)-3-(trifluoromethyl)phenyl)thiazol-2-amine], the EC50 is < 1000 nM.

Take `CCCCCOc1ccc(N(CCN(C)C)c2nc(-c3cccnc3)cs2)cc1C(F)(F)F` [Compound 11, N1,N1-dimethyl-N2-(4-(pentyloxy)-3-(trifluoromethyl)phenyl)-N2-(4-(pyridin-3-yl)thiazol-2-yl)ethane-1,2-diamine]: the EC50 lay within 1000 to 10000 nM.

As for `CCCCCOc1ccc(N(C(C)=O)c2nc(-c3cccnc3)cs2)cc1C(F)(F)F` [Compound 12, N-(4-(pentyloxy)-3-(trifluoromethyl)phenyl)-N-(4-(pyridin-3-yl)thiazol-2-yl)acetamide], the EC50 was < 1000 nM.

Consider `CCCCCOc1ccc(N(C(=O)C2CC2)c2nc(-c3ccc(C(=O)N(C)C)cn3)cs2)cc1C(F)(F)F` [Compound 13, N,N-dimethyl-6-(2-(N-(4-(pentyloxy)-3-(trifluoromethyl)phenyl)cyclopropane-carboxamido)thiazol-4-yl)nicotinamide], for which the EC50 is > 10000 nM.

For `CCCCCOc1ccc(N(C(=O)C(C)C)c2nc(-c3cccnc3)cs2)cc1C(F)(F)F` [Compound 14, N-(4-(pentyloxy)-3-(trifluoromethyl)phenyl)-N-(4-(pyridin-3-yl)thiazol-2-yl)isobutyramide], the EC50 is < 1000 nM.

As to `CCCCCOc1ccc(N(C(=O)C2CC2)c2nc(-c3cccnc3)cs2)cc1C(F)(F)F` [Compound 15, N-(4-(pentyloxy)-3-(trifluoromethyl)phenyl)-N-(4-(pyridin-3-yl)thiazol-2-yl)cyclopropanecarboxamide], the EC50 was < 1000 nM.

On to `CCCCCOc1ccc(N(C(C)=O)c2nc(-c3ccc(CN(C)C)nc3)cs2)cc1C(F)(F)F` [Compound 16, N-(4-(6-((dimethylamino)methyl)pyridin-3-yl)thiazol-2-yl)-N-(4-(pentyloxy)-3-(trifluoromethyl)phenyl)acetamide], for which the EC50 is 1000 to 10000 nM.

With `CCCCCOc1ccc(N(C(=O)C2CC2)c2nc(-c3ccc(CN(C)C)nc3)cs2)cc1C(F)(F)F` [Compound 17, N-(4-(6-((dimethylamino)methyl)pyridin-3-yl)thiazol-2-yl)-N-(4-(pentyloxy)-3-(trifluoromethyl)phenyl)cyclopropane-carboxamide], the EC50 lay within 1000 to 10000 nM.

For the molecule `CCCCCOc1ccc(N(C(=O)C(C)C)c2nc(-c3ccc(CN(C)C)nc3)cs2)cc1C(F)(F)F` [Compound 19, N-(4-(6-((dimethylamino)methyl)pyridin-3-yl)thiazol-2-yl)-N-(4-(pentyloxy)-3-(trifluoromethyl)phenyl)isobutyramide], the EC50 fell in the range of 1000 to 10000 nM.

As for `CCCCCOc1ccc(N(C(C)=O)c2nc(CN(C)C)cs2)cc1C(F)(F)F` [Compound 20, N-(4-((dimethylamino)methyl)thiazol-2-yl)-N-(4-(pentyloxy)-3-(trifluoromethyl)phenyl)acetamide], the EC50 was in the range of 1000 to 10000 nM.

As to `CCCCCOc1ccc(N(C(=O)C(C)C)c2nc(CN(C)C)cs2)cc1C(F)(F)F` [Compound 21, N-(4-((dimethylamino)methyl)thiazol-2-yl)-N-(4-(pentyloxy)-3-(trifluoromethyl)phenyl)isobutyramide], the EC50 fell in the range of 1000 to 10000 nM.

In the case of `CCCCCOc1ccc(N(C(=O)C2CC2)c2nc(CN(C)C)cs2)cc1C(F)(F)F` [Compound 22, N-(4-((dimethylamino)methyl)thiazol-2-yl)-N-(4-(pentyloxy)-3-(trifluoromethyl)phenyl)cyclopropane-carboxamide], the EC50 lay within 1000 to 10000 nM.

In the case of `CCCCCOc1ccc(N(C(=O)C(=O)OC)c2nc(CN(C)C)cs2)cc1C(F)(F)F` [Compound 23, methyl 2-((4-((dimethylamino)methyl)thiazol-2-yl)(4-(pentyloxy)-3-(trifluoromethyl)phenyl)amino)-2-oxoacetate], the EC50 fell in the range of 1000 to 10000 nM.

For `CCCCCOc1ccc(N(C(C)=O)c2nc(-c3cccnc3)cs2)cc1F` [Compound 24, N-(3-fluoro-4-(pentyloxy)phenyl)-N-(4-(pyridin-3-yl)thiazol-2-yl)acetamide], the EC50 is < 1000 nM.

`CCCCCOc1ccc(N(C(=O)C(C)C)c2nc(-c3cccnc3)cs2)cc1F` [Compound 25, N-(3-fluoro-4-(pentyloxy)phenyl)-N-(4-(pyridin-3-yl)thiazol-2-yl)isobutyramide]: the EC50 is < 1000 nM.

Consider `CCCCCOc1ccc(N(C(=O)C2CC2)c2nc(-c3cccnc3)cs2)cc1F` [Compound 26, N-(3-fluoro-4-(pentyloxy)phenyl)-N-(4-(pyridin-3-yl)thiazol-2-yl)cyclopropanecarboxamide], for which the EC50 is < 1000 nM.
